Article PMC12246728, “Efficient Oxidative Polymerization of Hydroxytyrosol Using Horseradish Peroxidase Immobilized on a Magnetic Silica‐Coated Nanocatalyst” (Global Challenges, 2025)

Tested on: T1, horseradish peroxidase (HRP)
T1 construct: gene PRXC1A
Assay: initial rate by absorbance at […] nm, Lineweaver-Burk
Assay type: biochemical
Conditions: free enzyme; 1 mM H2O2, pH 7.0, 25 °C; HXT 0.5-5.0 mM

Compound: OCCc1ccc(O)c(O)c1 [HXT, hydroxytyrosol]
- Km: 4.45 mM
